Source: patent publication US6818653B1, “6,7-Disubstituted -5,8-quinolinedione derivatives as an antifungal agent” (Il Jin Copper Foil Corp., priority 2002, dated 2004)
Values after ≈ are worked out from the molar mass of the structure shown. Where two headings read alike, the source gives them in different places.

Key:
[1] = system: Candida albicans ATCC10231; test: MIC by solid medium dilution method; format: cell-based; settings: Sabouraud's agar, 3 days at 30° C.; for MIC: Candida albicans, ATCC10231, 72 h
Description: (§1) The minimum inhibitory concentration (MIC), which indicates the lowest concentration of the active ingredient in the growth medium, was determined by solid medium dilution method. Pathogens strains used are Candida albicans ATCC10231, Candida glabrata ATCC2001, Candida tropicalis ATCC8775, Candida parasilosis ATCC22019, Cryptococuss neoformans KCTC7223.
(§2) 4 mg of a test compound was dissolved in 2 ml of dimethylfulfoxide(DMSO) to produce solutions having a concentration of 2 mg/ml for use and serial two-fold dilution was prepared. The test medium was Sabouraud's agar. 50 μl aliquot of serial two-fold dilution was added to 1 ml of agar medium in 10×1.2 cm petri dishes to be 100, 50, 25, 12.5 6.3, 1.6, and 0.8 μg/ml of test compound concentration and the slant was prepared by tilting the petri dishes. The MIC value without containing a test compound was determined in order to test an effect of a solvent to an antifungal activity. Hyphae with a diameter of 2 mm were inoculated with 2×10^5 CFU. After the medium was cultured for 3 days at 30° C., the MIC values were determined. Control drugs were fluconazole and ketoconazole.

[2] = system: Candida glabrata ATCC2001; test: MIC by solid medium dilution method; format: cell-based; settings: Sabouraud's agar, 3 days at 30° C.; for MIC: Nakaseomyces glabratus, ATCC2001, 72 h
Description: as §1, §2

[3] = system: Candida parasilosis ATCC22019; test: MIC by solid medium dilution method; format: cell-based; settings: Sabouraud's agar, 3 days at 30° C.; for MIC: 72 h, read-out: MIC C. parapsilosis
Description: as §1, §2

[4] = system: Candida tropicalis ATCC8775; test: MIC by solid medium dilution method; format: cell-based; settings: Sabouraud's agar, 3 days at 30° C.; for MIC: Candida tropicalis, ATCC8775, 72 h, read-out: MIC C. tropicallis
Description: as §1, §2

[5] = system: Cryptococuss neoformans KCTC7223; test: MIC by solid medium dilution method; format: cell-based; settings: Sabouraud's agar, 3 days at 30° C.; for MIC: Cryptococcus neoformans, KCTC7223, 72 h
Description: as §1, §2

C. albicans = test: ED50 in rats infected with C. albicans via tail vein; format: in vivo, rat; settings: for ED50: Candida albicans, read-out: ED50 ± SD (n = 5)
Description: C. albicans (1×10^7) isolated was inoculated to Sabouraud's agar, suspended in a physiological saline solution, and injected into tail vein of a rat. Strains to kill a rat within 48 hours were selected. C. albicans (2×10^6 which is concentration to kill a rat within 48 hours) suspended in a physiological saline solution was injected and infected into tail veins of 125 rats. Each concentration (10, 2, 0.5, 0.1, 0.025 mg/kg) of the compounds of table 3 was administered to each 10 rats. After infecting with Candida strain, each compound was administered to each 10 rats. Fluconazol as a control drug was also administered with 10, 2, 0.5 and 0.1 mg/kg of concentrations. A physiological saline solution containing 0.2% tween 20 was administered as a control group.

[6] = rat infected with C. albicans 2×10^6 via tail vein

Row | Compound | MIC C. albicans [1] [µg/mL] | MIC C. glabrata [2] [µg/mL] | MIC C. parapsilosis [3] [µg/mL] | MIC C. tropicallis [4] [µg/mL] | MIC C. neoformans [5] [µg/mL] | MIC [1] [µg/mL] | MIC [2] [µg/mL] | MIC [3] [µg/mL] | MIC [4] [µg/mL] | MIC [5] [µg/mL] | ED50 ± SD (n = 5) (C. albicans; [6]) [mg/kg] | ED50 (C. albicans) [mg/kg] | ED50 (C. albicans; [6]) [mg/kg]
1 | N#CSC1=C(Nc2cc(F)cc(F)c2)C(=O)c2cccnc2C1=O [compound 12, 6-[(N-3,5-difulorophenyl)amino]-7-thiocyano-5,8-quinolindion] | 12.5 (≈ 36.4 µM) | 12.5 (≈ 36.4 µM) | 1.6 (≈ 4.66 µM) | 3.2 (≈ 9.32 µM) | <0.8 | – | – | – | – | – | – | – | –
2 | CCCCCCCSC1=C(Cl)C(=O)c2ncccc2C1=O [compound 18, 6-n-heptylmercapto-7-chloro-5,8-quinolindion] | – | – | – | – | – | 6.3 (≈ 19.5 µM) | 50 (≈ 154 µM) | 6.3 (≈ 19.5 µM) | 12.5 (≈ 38.6 µM) | 12.5 (≈ 38.6 µM) | – | – | –
3 | CCCCCCCCCSC1=C(Cl)C(=O)c2ncccc2C1=O [compound 20, 6-n-nonylmercapto-7-chloro-5,8-quinolindion] | – | – | – | – | – | 50 (≈ 142 µM) | 50 (≈ 142 µM) | 25 (≈ 71 µM) | 6.3 (≈ 17.9 µM) | 25 (≈ 71 µM) | – | – | –
4 | CCCCCCCCSC1=C(Cl)C(=O)c2ncccc2C1=O [compound 19, 6-n-octylmercapto-7-chloro-5,8-quinolindion] | – | – | – | – | – | 12.5 (≈ 37 µM) | 25 (≈ 74 µM) | 3.2 (≈ 9.47 µM) | 12.5 (≈ 37 µM) | 12.5 (≈ 37 µM) | – | – | –
5 | N#CSC1=C(Nc2ccc(Br)cc2)C(=O)c2cccnc2C1=O [compound 9, 6-[(N-4-bromophenyl)amino]-7-thiocyano-5,8-quinolindion] | – | – | – | – | – | < 0.8 | 6.3 (≈ 16.3 µM) | < 0.8 | < 0.8 | 3.2 (≈ 8.29 µM) | – | – | –
6 | CSC1=C(Nc2ccc(Cl)cc2)C(=O)c2cccnc2C1=O [compound 6, 6-[(N-4-chlorophenyl)amino]-7-methylmercapto-5,8-quinolindion] | – | – | – | – | – | 12.5 (≈ 37.8 µM) | 6.3 (≈ 19 µM) | 25 (≈ 75.6 µM) | < 0.8 | 12.5 (≈ 37.8 µM) | – | – | –
7 | CCCCSC1=C(Cl)C(=O)c2ncccc2C1=O [compound 15, 6-n-butylmercapto-7-chloro-5,8-quinolindion] | – | – | – | – | – | 25 (≈ 88.7 µM) | 12.5 (≈ 44.4 µM) | 25 (≈ 88.7 µM) | 100 (≈ 355 µM) | 12.5 (≈ 44.4 µM) | – | – | –
8 | CSC1=C(Nc2ccc(F)c(F)c2F)C(=O)c2cccnc2C1=O [compound 5, 6-[(N-2,3,4-trifulorophenyl)amino]-7-methylmercapto-5,8-quinolindion] | 1.6 (≈ 4.57 µM) | 3.2 (≈ 9.13 µM) | 25.0 (≈ 71.4 µM) | 3.2 (≈ 9.13 µM) | 6.3 (≈ 18 µM) | – | – | – | – | – | – | – | –
9 | O=C1C(Nc2cc(Cl)cc(Cl)c2)=C(Cl)C(=O)c2ncccc21 [Compound No. 2, 6-[(N-3,5-dichlorophenyl)amino]-7-chloro-5,8-quinolindion] | 12.5 (≈ 35.4 µM) | 12.5 (≈ 35.4 µM) | 6.3 (≈ 17.8 µM) | 25.0 (≈ 70.7 µM) | 12.5 (≈ 35.4 µM) | – | – | – | – | – | 0.07 | – | –
10 | CC(=O)N1CCN(c2ccc(OCC3COC(Cn4ccnc4)(c4ccc(Cl)cc4Cl)O3)cc2)CC1 (stereo not drawn) [Ketoconazole, ketoconazole, reference compound] | – | – | – | – | – | 12.5 (≈ 23.5 µM) | 12.5 (≈ 23.5 µM) | 12.5 (≈ 23.5 µM) | 12.5 (≈ 23.5 µM) | 12.5 (≈ 23.5 µM) | – | – | –
11 | O=C1C(Nc2ccc(Br)cc2)=C(Br)C(=O)c2ncccc21 [Compound No. 3, 6-[(N-4-bromophenyl)amino]-7-bromo-5,8-quinolindion] | – | – | – | – | – | 6.3 (≈ 15.4 µM) | 6.3 (≈ 15.4 µM) | 25 (≈ 61.3 µM) | 12.5 (≈ 30.6 µM) | 6.3 (≈ 15.4 µM) | – | 0.06 | –
12 | CC(=O)c1ccc(NC2=C(Cl)C(=O)c3ncccc3C2=O)cc1 [Compound No. 4, 6-[(N-4-acetophenyl)amino]-7-chloro-5,8-quinolindion] | 1.6 (≈ 4.9 µM) | 3.2 (≈ 9.79 µM) | 6.3 (≈ 19.3 µM) | 3.2 (≈ 9.79 µM) | 12.5 (≈ 38.3 µM) | – | – | – | – | – | – | – | –
13 | N#CSC1=C(Nc2ccc(I)cc2)C(=O)c2cccnc2C1=O [compound 8, 6-[(N-4-iodophenyl)amino]-7-thiocyano-5,8-quinolindion] | – | – | – | – | – | 12.5 (≈ 28.9 µM) | 12.5 (≈ 28.9 µM) | 100 (≈ 231 µM) | 12.5 (≈ 28.9 µM) | 12.5 (≈ 28.9 µM) | – | – | –
14 | 6-n-hecxylmercapto-7-chloro-5,8-quinolindion [compound 17] | 25 | 50 | 25 | 50 | 12.5 | – | – | – | – | – | – | – | –
15 | CCCCCSC1=C(Cl)C(=O)c2ncccc2C1=O [compound 16, 6-n-pentylmercapto-7-chloro-5,8-quinolindion] | – | – | – | – | – | 3.2 (≈ 10.8 µM) | 12.5 (≈ 42.3 µM) | 6.3 (≈ 21.3 µM) | 50 (≈ 169 µM) | 25 (≈ 84.5 µM) | – | – | –
16 | CC(=O)c1ccc(NC2=C(SC#N)C(=O)c3ncccc3C2=O)cc1 [compound 11, 6-[(N-4-acetophenyl)amino]-7-thiocyano-5,8-quinolindion] | 6.3 (≈ 18 µM) | 25 (≈ 71.6 µM) | 3.2 (≈ 9.16 µM) | 3.2 (≈ 9.16 µM) | <0.8 | – | – | – | – | – | – | – | –
17 | N#CSC1=C(Nc2ccc(Cl)cc2)C(=O)c2cccnc2C1=O [compound 10, 6-[(N-4-chlorophenyl)amino]-7-thiocyano-5,8-quinolindion] | – | – | – | – | – | 12.5 (≈ 36.6 µM) | 12.5 (≈ 36.6 µM) | 100 (≈ 293 µM) | 12.5 (≈ 36.6 µM) | 6.3 (≈ 18.4 µM) | – | – | –
18 | OC(Cn1cncn1)(Cn1cncn1)c1ccc(F)cc1F [Fluconazole, fluconazole, reference compound] | – | – | – | – | – | 25 (≈ 81.6 µM) | 25 (≈ 81.6 µM) | 12.5 (≈ 40.8 µM) | 100 (≈ 327 µM) | 25 (≈ 81.6 µM) | – | – | 6
19 | CCCSC1=C(Cl)C(=O)c2ncccc2C1=O [compound 14, 6-n-propylmercapto-7-chloro-5,8-quinolindion] | – | – | – | – | – | 12.5 (≈ 46.7 µM) | 50 (≈ 187 µM) | 12.5 (≈ 46.7 µM) | 50 (≈ 187 µM) | 3.2 (≈ 12 µM) | – | – | –
20 | O=C1C(Nc2ccc(Cl)cc2)=C(Br)C(=O)c2ncccc21 [Compound No. 1, 6-[(N-4-chlorophenyl)amino]-7-bromo-5,8-quinolindion] | – | – | – | – | – | 6.3 (≈ 17.3 µM) | 12.5 (≈ 34.4 µM) | 25 (≈ 68.8 µM) | 12.5 (≈ 34.4 µM) | 12.5 (≈ 34.4 µM) | – | 0.06 | –
21 | CCSC1=C(Cl)C(=O)c2ncccc2C1=O [compound 13, 6-n-ethylmercapto-7-chloro-5,8-quinolindion] | 12.5 (≈ 49.3 µM) | 50 (≈ 197 µM) | 3.2 (≈ 12.6 µM) | 100 (≈ 394 µM) | 6.3 (≈ 24.8 µM) | – | – | – | – | – | – | – | –
22 | CSC1=C(Nc2ccc(I)cc2)C(=O)c2cccnc2C1=O [compound 7, 6-[(N-4-iodophenyl)amino]-7-methylmercapto-5,8-quinolindion] | – | – | – | – | – | 6.3 (≈ 14.9 µM) | 3.2 (≈ 7.58 µM) | 25 (≈ 59.2 µM) | 3.2 (≈ 7.58 µM) | 3.2 (≈ 7.58 µM) | – | – | –
